Experimental data taken from ChEMBL document CHEMBL3132769, “Fragment growing to retain or alter the selectivity of anchored kinase hinge-binding fragments” (Medchemcomm, 2014).

Columns and labels:
[1] = biological target: Casein kinase I isoform alpha (Homo sapiens) (UniProt P48729); assay: Inhibition of human full length CSNK1A1 expressed in baculovirus assessed as substrate phosphorylation using fluorescence-labelled peptides as substrate at 9 uM after 90 mins by microfluidic peptide phosphorylation assay
[2] = biological target: T1, Protein kinase C epsilon type (Homo sapiens) (UniProt Q02156); assay: Inhibition of human truncated PKC epsilon expressed in baculovirus assessed as substrate phosphorylation using fluorescence-labelled peptides as substrate at […] after 90 mins by microfluidic peptide phosphorylation assay
T1 sequence (whole entry): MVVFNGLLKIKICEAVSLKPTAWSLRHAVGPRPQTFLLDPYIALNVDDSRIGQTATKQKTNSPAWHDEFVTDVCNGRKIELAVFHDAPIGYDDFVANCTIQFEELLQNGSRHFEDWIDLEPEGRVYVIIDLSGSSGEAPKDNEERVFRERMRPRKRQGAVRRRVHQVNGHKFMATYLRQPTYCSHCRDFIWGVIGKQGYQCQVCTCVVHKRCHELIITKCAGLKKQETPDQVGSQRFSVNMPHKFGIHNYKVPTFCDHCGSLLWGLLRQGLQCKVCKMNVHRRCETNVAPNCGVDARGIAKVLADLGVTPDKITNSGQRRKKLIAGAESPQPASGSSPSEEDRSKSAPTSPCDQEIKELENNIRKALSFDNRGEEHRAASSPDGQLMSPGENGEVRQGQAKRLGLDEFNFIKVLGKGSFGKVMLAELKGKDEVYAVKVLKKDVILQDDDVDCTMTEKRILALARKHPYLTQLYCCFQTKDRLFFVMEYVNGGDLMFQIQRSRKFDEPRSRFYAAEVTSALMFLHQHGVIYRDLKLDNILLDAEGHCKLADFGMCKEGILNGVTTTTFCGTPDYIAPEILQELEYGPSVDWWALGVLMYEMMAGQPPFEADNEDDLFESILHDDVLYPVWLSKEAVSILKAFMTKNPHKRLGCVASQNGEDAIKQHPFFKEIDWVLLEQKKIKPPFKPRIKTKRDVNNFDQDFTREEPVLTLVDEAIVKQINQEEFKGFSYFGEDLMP

[3] = biological target: T2, Serine/threonine-protein kinase DCLK2 (Homo sapiens) (UniProt Q8N568); assay: Inhibition of human full length DCAMKL2 expressed in baculovirus assessed as substrate phosphorylation using fluorescence-labelled peptides as substrate at 1000 uM after 90 mins by microfluidic peptide phosphorylation assay
T2 sequence (whole entry): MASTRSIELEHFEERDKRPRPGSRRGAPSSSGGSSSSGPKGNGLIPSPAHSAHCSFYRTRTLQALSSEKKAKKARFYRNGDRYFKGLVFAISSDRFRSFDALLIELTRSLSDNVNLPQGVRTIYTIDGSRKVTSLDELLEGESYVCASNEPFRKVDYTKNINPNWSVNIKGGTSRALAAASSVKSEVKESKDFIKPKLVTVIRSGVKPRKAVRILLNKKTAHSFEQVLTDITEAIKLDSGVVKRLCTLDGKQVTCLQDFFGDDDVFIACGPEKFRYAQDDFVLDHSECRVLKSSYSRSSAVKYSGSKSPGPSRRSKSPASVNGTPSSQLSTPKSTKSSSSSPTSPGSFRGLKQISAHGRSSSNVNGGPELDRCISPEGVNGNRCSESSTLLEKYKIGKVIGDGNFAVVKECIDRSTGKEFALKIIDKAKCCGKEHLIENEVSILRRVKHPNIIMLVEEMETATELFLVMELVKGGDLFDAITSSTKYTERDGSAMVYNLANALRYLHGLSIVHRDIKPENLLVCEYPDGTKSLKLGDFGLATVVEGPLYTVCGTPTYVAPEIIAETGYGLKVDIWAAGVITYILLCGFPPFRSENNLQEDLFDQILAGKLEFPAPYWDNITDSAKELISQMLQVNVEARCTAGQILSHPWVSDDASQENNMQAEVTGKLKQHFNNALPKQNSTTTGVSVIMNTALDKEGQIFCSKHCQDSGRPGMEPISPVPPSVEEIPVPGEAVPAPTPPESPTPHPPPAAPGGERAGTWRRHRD

[4] = biological target: T3, Serine/threonine-protein kinase D1 (Homo sapiens) (UniProt Q15139); assay: Inhibition of human full length PKD1 expressed in baculovirus assessed as substrate phosphorylation using fluorescence-labelled peptides as substrate at 1000 uM after 90 mins by microfluidic peptide phosphorylation assay
T3 sequence (whole entry): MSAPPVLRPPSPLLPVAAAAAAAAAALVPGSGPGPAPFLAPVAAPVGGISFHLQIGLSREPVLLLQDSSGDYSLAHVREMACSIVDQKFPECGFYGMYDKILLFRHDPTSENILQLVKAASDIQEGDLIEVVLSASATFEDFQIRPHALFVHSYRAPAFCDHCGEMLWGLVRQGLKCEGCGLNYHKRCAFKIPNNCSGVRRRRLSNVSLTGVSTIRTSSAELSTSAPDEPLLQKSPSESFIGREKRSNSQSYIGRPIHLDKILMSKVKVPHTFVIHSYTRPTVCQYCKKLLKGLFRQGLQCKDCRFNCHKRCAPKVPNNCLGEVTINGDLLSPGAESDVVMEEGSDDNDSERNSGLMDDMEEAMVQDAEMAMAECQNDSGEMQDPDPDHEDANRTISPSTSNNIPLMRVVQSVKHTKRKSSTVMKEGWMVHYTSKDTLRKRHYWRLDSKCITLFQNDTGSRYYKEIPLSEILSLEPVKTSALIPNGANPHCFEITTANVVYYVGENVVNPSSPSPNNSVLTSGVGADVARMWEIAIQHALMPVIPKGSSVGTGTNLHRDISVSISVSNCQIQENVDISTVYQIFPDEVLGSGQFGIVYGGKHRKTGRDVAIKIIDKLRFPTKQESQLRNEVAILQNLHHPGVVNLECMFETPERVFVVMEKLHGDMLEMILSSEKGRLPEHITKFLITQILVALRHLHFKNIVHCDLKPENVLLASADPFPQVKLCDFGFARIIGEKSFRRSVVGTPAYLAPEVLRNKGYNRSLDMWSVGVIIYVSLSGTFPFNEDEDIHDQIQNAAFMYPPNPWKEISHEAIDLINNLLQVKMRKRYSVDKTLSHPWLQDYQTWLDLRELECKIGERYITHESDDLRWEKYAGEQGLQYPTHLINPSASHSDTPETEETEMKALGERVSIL

Casein kinase I isoform alpha (Homo sapiens), sequence (P48729 2-337 limits assumed): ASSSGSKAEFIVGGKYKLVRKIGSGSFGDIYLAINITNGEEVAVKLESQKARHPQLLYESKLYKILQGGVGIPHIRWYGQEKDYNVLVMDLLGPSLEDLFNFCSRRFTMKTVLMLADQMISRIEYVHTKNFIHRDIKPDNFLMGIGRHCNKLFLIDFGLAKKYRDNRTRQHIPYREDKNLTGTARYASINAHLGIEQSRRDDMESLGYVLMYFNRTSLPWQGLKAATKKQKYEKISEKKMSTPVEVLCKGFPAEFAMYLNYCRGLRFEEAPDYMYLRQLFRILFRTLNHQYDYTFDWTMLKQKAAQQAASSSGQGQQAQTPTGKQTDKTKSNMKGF

**Q.** Which inhibition [1] does the source give for `NCC1CN(c2ncnc3[nH]c4cnccc4c23)CCO1` (centres undefined) here?
**A.** Its inhibition is 13%.

**Q.** Which inhibition [2] does the source give for `COC(=O)c1cnc(Nc2cnc(C#N)cn2)cc1NCC1CCNCC1` here?
**A.** The inhibition was 1%.

**Q.** `c1cnc2[nH]ccc2c1` was tested. Which inhibition [3] did it give?
**A.** The inhibition was 15%.

**Q.** What about the inhibition [4] of the same compound?
**A.** The inhibition was 54%.
